The values that follow come from US8350033B2, “4-((3, 5, 6-trimethylpyrazine-2-yl) methoxyl) benzoic acid and its derivatives” (priority 2007, dated 2013).

One data set deals with aggregation of platelet. Briefly: Experiment of resisting platelet aggregation (ADP-induced, platelet-rich plasma, absorbance at 600 nm). It counts as cell-based, rabbit. The settings on record: for IC50: Oryctolagus cuniculus, rabbit platelet-rich plasma, ADP final concentration of 4 μmol/L, read-out: IC50 (50% inhibitory concentration) on aggregation of platelet. As to the method: Experiment of resisting platelet aggregation with the ligustrazine aromatic acid ether derivatives: Anaesthetizing intravenously a rabbit with 3% pentobarbital sodium, separating arteria carotis communis and taking blood by inserting a pipe, using 3.8% sodium citrate solution (dissolving 3.8 g sodium citrate with distilled water, up to 100 mL, filtering, bottling, sterilizing under 121° C. and high pressure for 15 min) as an anticoagulant (1:9), 1000 r/min, centrifuging for 5 min to prepare platelet-rich plasma (PRP), 3000 r/min, centrifuging for 15 min to prepare platelet-poor plasma (PPP). Cultivating the PRP under 37° C. in a silicified cuvette for 5 min, measuring absorbance (A) at 600 nm, adjusting the absorbance of the PRP to 0.6-0.7 with the PPP, adding 1.7 mL adjusted PRP into another silicified cuvette, adding 200 μL of the test drug, measuring the absorbance at 600 nm before adding […], then adding 100 μL of ADP (final concentration of 4 μmol/L), respectively measuring the absorbance when 2 and 5 min after adding the ADP, calculating aggregation rate (AR) by the following formula: AR=(A before adding the ADP−A after adding the ADP)/A before adding the ADP (100%.). At the same time, calculating aggregation inhibition rate (AIR) of the tested drug to platelet: AIR=[1−(aggregation percentage in administrated tube/aggregation percentage in contrast tube)]×100. Calculating 50% inhibitory concentration (IC50) of the tested drug, referring to table 2.

`O=C(O)/C=C/c1ccc(Cn2ccnc2)cc1` [Ozagrel, reference compound]: the IC50 in the data set on aggregation of platelet was found to be 1600 µM.
The term melting point denotes the temperature, or range, at which the solid turns liquid. With `COc1cc(C(=O)O)cc(OC)c1OCc1nc(C)c(C)nc1C` [Example 2, 4-((3,5,6-trimethylpyrazine-2-yl)methoxyl)-3,5-dimethoxybenzoic acid], the melting point is > 218 °C (dec.).
Same read-out and setting: the result for `COc1cc(C(=O)O)ccc1OCc1nc(C)c(C)nc1C` [Example 5, 4-((3,5,6-trimethylpyrazine-2-yl)methoxyl)-3-methoxybenzoic acid] reads 183 to 185 °C.
With `COc1ccc(C(=O)O)cc1OCc1nc(C)c(C)nc1C` [MC5, 3-((3,5,6-trimethylpyrazine-2-yl)methoxyl)-4-methoxybenzoic acid], the melting point was 190 to 192 °C. Further, the IC50 in the data set with aggregation of platelet is 1000 µM. In addition, the “antiplatelet aggregative activity compared with Ozagrel positive drug (in words)” value with aggregation of platelet (rabbit PRP, ADP) was “stronger than Ozagrel”.
The like results for `Cc1nc(C)c(COc2ccc(C(=O)O)cc2)nc1C` [MC1, 4-((3,5,6-trimethylpyrazine-2-yl)methoxyl)benzoic acid] were, in that order, 179 to 181 °C, 1360 µM and “stronger than Ozagrel”.
Take `COc1cc(/C=C/C(=O)O)ccc1OCc1nc(C)c(C)nc1C` [MC2, (E)-3-(4-((3,5,6-Trimethylpyrazin-2-yl)methoxy)-3-methoxyphenyl)acrylic acid]: the melting point fell in the range of 156 to 158 °C. In addition, the IC50 in the data set with aggregation of platelet was 280 µM. Also, the “antiplatelet aggregative activity compared with Ozagrel positive drug (in words)” value with aggregation of platelet (rabbit PRP, ADP) was “stronger than Ozagrel”. Also, the “antiplatelet aggregative activity relative to Ozagrel” value with aggregation of platelet (ratio to Ozagrel positive drug, rabbit PRP, ADP) was 5.7 times.
